Results taken from the NIST ThermoML archive (doi:10.1016/j.fluid.2004.11.022).

What was measured:
[1] = mn = molality of the nth substance listed, in mol/kg; conditions: 298.15 K, 101.3 kPa, Liquid
[2] = osmotic coefficient (dimensionless); mn = molality of the nth substance listed, in mol/kg; conditions: 298.15 K, Liquid, isopiestic method

[Cl-].[Cl-].[Zn+2] [zinc chloride] + CCO
Conditions | mass density [kg/m3] | osmotic coefficient
[1], m1 = 0.0018 | 785.28 | –
[1], m1 = 0.0035 | 785.46 | –
[1], m1 = 0.0053 | 785.67 | –
[1], m1 = 0.0087 | 786.03 | –
[1], m1 = 0.0106 | 786.24 | –
[1], m1 = 0.0127 | 786.47 | –
[1], m1 = 0.0167 | 786.9 | –
[1], m1 = 0.0185 | 787.09 | –
[1], m1 = 0.0227 | 787.56 | –
[1], m1 = 0.033 | 788.63 | –
[1], m1 = 0.0394 | 789.3 | –
[1], m1 = 0.0471 | 790.1 | –
[1], m1 = 0.051 | 790.5 | –
[1], m1 = 0.0551 | 790.94 | –
[1], m1 = 0.0624 | 791.69 | –
[1], m1 = 0.0691 | 792.36 | –
[1], m1 = 0.0734 | 792.8 | –
[1], m1 = 0.0781 | 793.28 | –
[1], m1 = 0.0825 | 793.72 | –
[1], m1 = 0.0921 | 794.68 | –
[1], m1 = 0.1035 | 795.81 | –
[1], m1 = 0.1713 | 802.4 | –
[1], m1 = 0.2776 | 812.39 | –
[1], m1 = 0.4056 | 824.04 | –
[1], m1 = 0.5788 | 839.34 | –
[1], m1 = 0.6875 | 848.7 | –
[1], m1 = 0.8432 | 861.8 | –
[1], m1 = 1.086 | 881.52 | –
[1], m1 = 1.132 | 885.11 | –
[1], m1 = 1.312 | 899.05 | –
[1], m1 = 1.346 | 901.59 | –
[1], m1 = 1.542 | 916.09 | –
[1], m1 = 1.689 | 926.54 | –
[1], m1 = 1.883 | 940 | –
[1], m1 = 2.041 | 950.61 | –
[1], m1 = 2.204 | 961.4 | –
[1], m1 = 2.402 | 974.29 | –
[1], m1 = 2.541 | 983.29 | –
[1], m1 = 2.776 | 998.74 | –
[2], m1 = 0.219 | – | 0.359
[2], m1 = 0.4046 | – | 0.332
[2], m1 = 0.4882 | – | 0.352
[2], m1 = 0.5854 | – | 0.358
[2], m1 = 0.7111 | – | 0.36
[2], m1 = 0.7875 | – | 0.379
[2], m1 = 0.8946 | – | 0.383
[2], m1 = 1.057 | – | 0.405
[2], m1 = 1.087 | – | 0.403
[2], m1 = 1.205 | – | 0.416
[2], m1 = 1.227 | – | 0.422
[2], m1 = 1.353 | – | 0.441
[2], m1 = 1.446 | – | 0.443
[2], m1 = 1.567 | – | 0.458
[2], m1 = 1.666 | – | 0.472
[2], m1 = 1.765 | – | 0.482
[2], m1 = 1.889 | – | 0.494
[2], m1 = 1.973 | – | 0.506
[2], m1 = 2.115 | – | 0.519
[2], m1 = 2.233 | – | 0.542
[2], m1 = 2.408 | – | 0.56
[2], m1 = 2.455 | – | 0.571
[2], m1 = 2.61 | – | 0.594
[2], m1 = 2.712 | – | 0.616
